Data reported in patent publication US9839618B2, “Compositions and methods relating to proliferative diseases” (The Penn State Research Foundation, priority 2010, dated 2017).
Read-outs that look alike come from different tables or passages of the source.

What was measured:
[1] = test system: Prostate (LnCap) cancer cell line; assay: MTS assay viability IC50, LnCap; type: cell-based; conditions: Homo sapiens, Table 5
Experimental: (§1) Dehydroabietylamine, its N-substituted derivatives and the corresponding dihydroabietylamine and its N-substituted derivatives are tested for their capability to inhibit cell growth of cancer cell lines, including melanoma (UACC 903, 1205Lu), breast (MCF-7), fibrosarcoma (HT-1080), colon (Caco-2), and prostate (PC-3) cancer cell lines. Viability and IC50 of normal human fibroblasts and cell lines from melanoma and other malignancies following treatment with all the agents are measured using the MTS assay (Promega, Madison, Wis.). Human fibroblast FF2441 cells, metastatic melanoma cell lines 1205 Lu and UACC 903 as well as cancer cell lines representing sarcoma (HT-1080), prostate (PC-3, LNCaP), breast (MCF-7) and lung (A-549) are maintained in DMEM (Invitrogen, Carlsbad, Calif.) supplemented with 10% FBS (Hyclone, Logan, Utah) in a 5% CO2 atmosphere, humidified 37° C. incubator. 5×10^3 cells per well in 100 μL of media are plated and grown in a 96-well plate for 48 to 72 h and treated with either DMSO vehicle control or 0.62 to 40 μmol/L for 24, 48 or 72 h. IC50 values for each compound in […] for respective cell lines are measured from three independent experiments using GraphPad Prism version 4.01 (GraphPad Software, La Jolla, Calif.). FIG. 52 is a graph showing IC50 values for leelamine and compounds 4a, 4b and 5a in treated fibroblasts (FF2441) compared to melanoma cells. Selectivity ratio here is defined as ratio of activity against fibroblasts compared to activity against melanoma cells. Leelamine is relatively selective with a ratio of >6 and >4 for UACC903 and 1205Lu melanoma cells. The selectivity ratio of compound 4a is ˜4 and ˜3 for UACC903 and 1205Lu and for compound 4b is ˜4 for both cell lines. The selectivity ratio of compound 5a is ˜4 for UACC903 and >2 for 1205Lu cells.

[2] = test system: Prostate (PC-3) cancer cell line; assay: MTS assay viability IC50, PC-3; type: cell-based; conditions: Table 5
Experimental: as §1

[3] = test system: Breast (MCF-7) cancer cell line; assay: MTS assay viability IC50, MCF-7; type: cell-based; conditions: Homo sapiens, MCF7; Table 5
Experimental: as §1

[4] = test system: FF2441 normal human fibroblasts; assay: MTS assay viability IC50, normal fibroblasts; type: cell-based
Experimental: (§2) The efficacy of leelamine to kill other cancer types is measured and the IC50 for cell lines derived from carcinomas of breast, lung, prostate, connective tissue, pancreas and colon determined. The MTS assay as described in Sharma, A. et al., Clin Cancer Res, 2009, 15:1674-85; and Madhunapantula, S. V. et al., Mol Cancer Ther, 2008, 7:1297-308 is used to establish the IC50 at 24, 48 and 72 hours of leelamine treatment for normal human epidermal melanocytes (FOM103), normal skin fibroblast cells (FF2441), normal skin keratinocytes (HFK) and compared to melanocytic lesion cells from the radial-, vertical- and metastatic melanoma stages. 5×10^3 cells per well in 100 μL of media are plated and grown in a 96-well plate for 48 to 72 hours and treated with either DMSO vehicle control or 0.62 to 40 μmol/L of leelamine for 24, 48 or 72 hours. IC50 values for each compound in μmol/L for respective cell lines are measured from three independent experiments using GraphPad Prism version 4.01 (GraphPad Software, La Jolla, Calif.). Leelamine is found to be not toxic to normal cells and effective to kill melanoma cells as well as non-melanoma cancer cells as shown in Table 1 in FIG. 20. Leelamine is 3- to 4-fold more specific at killing metastatic melanoma than normal cells, supporting cancer therapeutic utility at concentrations<2 μmol/L.
5×10^3 cells per well in 100 μL of media are plated and grown in a 96-well plate for 48 to 72 hours and treated with either DMSO vehicle control or 0.62 to 40 μmol/L of leelamine for 24, 48 or 72 hours. IC50 values for each compound in μmol/L for respective cell lines are measured from three independent experiments using GraphPad Prism version 4.01 (GraphPad Software, La Jolla, Calif.). […]
as §1

[5] = test system: UACC 903 metastatic melanoma cells; assay: MTS assay viability IC50, UACC 903; type: cell-based, human; conditions: for IC50: Homo sapiens, UACC-903; for Selectivity ratio, fibroblasts versus UACC903: activity against fibroblasts FF2441 compared to melanoma cells
Experimental: as §2
5×10^3 cells per well in 100 μL of media are plated and grown in a 96-well plate for 48 to 72 hours and treated with either DMSO vehicle control or 0.62 to 40 μmol/L of leelamine for 24, 48 or 72 hours. IC50 values for each compound in μmol/L for respective cell lines are measured from three independent experiments using GraphPad Prism version 4.01 (GraphPad Software, La Jolla, Calif.).
The IC50 and effect of liposomal preparations of leelamine on viability of normal human melanocytes, fibroblasts and melanoma cells UACC 903 and 1205 Lu are measured using the MTS assay (Promega, Madison, Wis.). Empty liposomes or liposomes containing abietic acid are used as controls. 5×10^3 cells per well in 100 μL of media are plated and grown in a 96-well plate for 48 or 72 hours for melanoma and normal cell lines, respectively. The cells are then treated with 0.62 to 40 μmol/L of liposome alone, a liposomal preparation of abietic acid, or with Nanolipolee-007 for 24 hours. IC50 values for each liposome in μmol/L for respective cell lines are measured from three independent experiments using GraphPad Prism version 4.01 (GraphPad Software, La Jolla, Calif.). Nanolipolee-007 retains the growth inhibitory activity of leelamine in killing melanoma cells in culture and specifically kills melanoma cells compared to normal cells, FIG. 24.
as §1, with “FIG. 52 is a graph showing IC50 values for leelamine and compounds 4a, 4b and 5a in treated fibroblasts (FF2441) compared to melanoma cells. Selectivity ratio here is defined as ratio of activity against fibroblasts compared to activity against melanoma cells. Leelamine is relatively selective with a ratio of >6 and >4 for UACC903 and 1205Lu melanoma cells. The selectivity ratio of compound 4a is ˜4 and ˜3 for UACC903 and 1205Lu and for compound 4b is ˜4 for both cell lines. The selectivity ratio of compound 5a is ˜4 for UACC903 and >2 for 1205Lu cells.” left out

cancer cell line = assay: MTS assay viability IC50, A-459; type: cell-based; conditions: A459; Table 5; read-out: IC50 Liver (A-459)
Experimental: as §1

[6] = Homo sapiens, FF2441, Table 5, read-out: IC50 Fibroblast FF2441
[7] = Table 4, read-out: IC50 Metastatic Melanoma Cell line UACC903
[8] = Table 5, read-out: IC50 Melanoma (UACC903)
[9] = Table 6, read-out: IC50 Metastatic melanoma UACC 903
[10] = Table 7, read-out: IC50 (UACC903)

Row | IC50 [1] | IC50 [2] | IC50 [3] | IC50 [5, 7] | IC50 [5, 8] | IC50 [5, 9] | IC50 [5, 10] | IC50 (cancer cell line) | IC50 ([5]; Example 8, read-out: IC50 UACC 903) | Structure (SMILES) | IC50 ([4]; Homo sapiens, FF2441, Table 4, read-out: IC50 Normal fibroblast FF2441) | IC50 [4, 6] | IC50 ([4]; Table 6, read-out: IC50 Normal fibroblast FF2441) | Selectivity ratio, fibroblasts versus UACC903 [5]
1 | > 100 µM | > 100 µM | > 100 µM | > 100 µM | > 100 µM | > 100 µM | > 100 µM | > 100 µM |  | CC(C)C1=CC2=CCC3[C@](C)(CCC[C@@]3(C)C(=O)O)C2CC1 (stereo partly drawn) [Abietic acid, (1R,4aR)-1,4a-dimethyl-7-(propan-2-yl)-1,2,3,4,4a,4b,5,6,10,10a-decahydrophenanthrene-1-carboxylic acid, reference compound] | > 100 µM | > 100 µM | > 100 µM | 
2 | 14.8 ± 1.99 µM | 9.73 ± 1.04 µM | 8.69 ± 1.81 µM | 2.13 ± 0.19 µM | 2.36 ± 0.25 µM | 2.13 ± 0.19 µM | 2.13 µM | 19.1 ± 3.87 µM | 2.13 µM | CC(C)C1=CC2=CCC3[C@](C)(CN)CCC[C@]3(C)C2CC1 (stereo partly drawn) [Compound 4a, {[(1R,4aR)-1,4a-dimethyl-7-(propan-2-yl)-1,2,3,4,4a,4b,5,6,10,10a-decahydrophenanthren-1-yl]methyl}amine] |  | 8.33 ± 0.43 µM |  | ~4
3 | 8.63 ± 0.97 µM | 4.66 ± 0.55 µM | 4.39 ± 0.71 µM | 1.28 ± 0.05 µM | 1.28 ± 0.05 µM | 1.28 ± 0.05 µM | 1.28 µM | 9.7 ± 1.34 µM |  | CC(C)c1ccc2c(c1)CCC1[C@](C)(CNC(=O)C(F)(F)F)CCC[C@]21C (stereo partly drawn) [Compound 5a, N-{[(1R,4aS)-1,4a-dimethyl-7-(propan-2-yl)-1,2,3,4,4a,9,10,10a-octahydrophenanthren-1-yl]methyl}-2,2,2-trifluoroacetamide] |  | 5.17 ± 0.02 µM |  | ~4
4 | 10.9 ± 2.11 µM | 4.85 ± 1.09 µM | 6.42 ± 0.52 µM |  | 1.35 ± 0.5 µM | 1.35 ± 0.05 µM | 1.35 µM | 9.27 ± 1.43 µM |  | CC(C)c1ccc2c(c1)CCC1[C@](C)(CN)CCC[C@]21C (stereo partly drawn) [Leelamine, [(1R,4aS)-1,4a-dimethyl-7-(propan-2-yl)-1,2,3,4,4a,9,10,10a-octahydrophenanthren-1-yl]methanamine] |  | 8.91 ± 0.57 µM |  | > 6
